Columns and labels:
Test in all cases: Kinobeads competition binding with immobilized CZC25342, mixed HeLa placenta lysates (Example 5, Table 7)
[1] = molecular target: T1, kinases from mixed HeLa placenta lysates (Homo sapiens, UniProt Q96GD4); details: kinase AurB; 10 μM free compound; HeLa Placenta lysate mix
T1 construct: capturing and identification of kinases from mixed HeLa placenta lysates; endogenous in cells; host or cells: mixed lysate of HeLa cells and placenta tissue
Experimental: (§1) To one aliquot of cell lysate 10 μM of the free compound (FIG. 2, CZC25342) was added and allowed to bind to proteins in the lysate. Then the affinity matrix with the immobilized compound was added to capture proteins that were not interacting with the previously added free compound. Beads were separated from the lysate and bead bound proteins were eluted in SDS sample buffer and subsequently separated by SDS-Polyacrylamide gel electrophoresis (FIG. 11). Suitable gel bands were cut out and subjected to in-gel proteolytic digestion with trypsin. The second lysate aliquot was processed identically, however no free compound was added (DMSO solvent control). Peptides originating from samples 1 and 2 were labeled with iTRAQ reagents (iTRAQ 114 and iTRAQ 117) and the combined samples were analyzed with a nano-flow liquid chromatography system coupled online to a tandem mass spectrometer (LC-MS/MS) experiment followed by iTRAQ reporter ion quantification in the MS/MS spectra as described in Example 2. The identified kinases are shown in Table 7 including the percent competition values for the sample to which 10 μM free compound had been added. In total of 83 different kinases were identified and competed by different degrees.

[2] = molecular target: T2, kinases from mixed HeLa placenta lysates (Homo sapiens, UniProt Q13470); details: kinase TNK1; 10 μM free compound; HeLa Placenta lysate mix
T2 construct: capturing and identification of kinases from mixed HeLa placenta lysates; endogenous in cells; host or cells: mixed lysate of HeLa cells and placenta tissue
Experimental: as §1

[3] = molecular target: T3, kinases from mixed HeLa placenta lysates (Homo sapiens, UniProt O95382); details: kinase MAP3K6; 10 μM free compound; HeLa Placenta lysate mix
T3 construct: capturing and identification of kinases from mixed HeLa placenta lysates; endogenous in cells; host or cells: mixed lysate of HeLa cells and placenta tissue
Experimental: as §1

[4] = molecular target: T4, kinases from mixed HeLa placenta lysates (Homo sapiens, UniProt P45984); details: kinase JNK2; 10 μM free compound; HeLa Placenta lysate mix
T4 construct: capturing and identification of kinases from mixed HeLa placenta lysates; endogenous in cells; host or cells: mixed lysate of HeLa cells and placenta tissue
Experimental: as §1

[5] = molecular target: T5, kinases from mixed HeLa placenta lysates (Homo sapiens, UniProt P27448); details: kinase MARK3; 10 μM free compound; HeLa Placenta lysate mix
T5 construct: capturing and identification of kinases from mixed HeLa placenta lysates; endogenous in cells; host or cells: mixed lysate of HeLa cells and placenta tissue
Experimental: as §1

[6] = molecular target: T6, kinases from mixed HeLa placenta lysates (Homo sapiens, UniProt P17252); details: kinase PKCa; 10 μM free compound; HeLa Placenta lysate mix
T6 construct: capturing and identification of kinases from mixed HeLa placenta lysates; endogenous in cells; host or cells: mixed lysate of HeLa cells and placenta tissue
Experimental: as §1

[7] = molecular target: T7, kinases from mixed HeLa placenta lysates (Homo sapiens, UniProt O43353); details: kinase RIPK2; 10 μM free compound; HeLa Placenta lysate mix
T7 construct: capturing and identification of kinases from mixed HeLa placenta lysates; endogenous in cells; host or cells: mixed lysate of HeLa cells and placenta tissue
Experimental: as §1

[8] = molecular target: T8, kinases from mixed HeLa placenta lysates (Homo sapiens, UniProt O14965); details: kinase AurA; 10 μM free compound; HeLa Placenta lysate mix
T8 construct: capturing and identification of kinases from mixed HeLa placenta lysates; endogenous in cells; host or cells: mixed lysate of HeLa cells and placenta tissue
Experimental: as §1

[9] = molecular target: T9, kinases from mixed HeLa placenta lysates (Homo sapiens, UniProt Q8TD19); details: kinase NEK9; 10 μM free compound; HeLa Placenta lysate mix
T9 construct: capturing and identification of kinases from mixed HeLa placenta lysates; endogenous in cells; host or cells: mixed lysate of HeLa cells and placenta tissue
Experimental: as §1

[10] = molecular target: T10, kinases from mixed HeLa placenta lysates (Homo sapiens, UniProt Q9Y2U5); details: kinase MAP3K2; 10 μM free compound; HeLa Placenta lysate mix
T10 construct: capturing and identification of kinases from mixed HeLa placenta lysates; endogenous in cells; host or cells: mixed lysate of HeLa cells and placenta tissue
Experimental: as §1

[11] = molecular target: T11, kinases from mixed HeLa placenta lysates (Homo sapiens, UniProt Q9NWZ3); details: kinase IRAK4; 10 μM free compound; HeLa Placenta lysate mix
T11 construct: capturing and identification of kinases from mixed HeLa placenta lysates; endogenous in cells; host or cells: mixed lysate of HeLa cells and placenta tissue
Experimental: as §1

[12] = molecular target: T12, kinases from mixed HeLa placenta lysates (Homo sapiens, UniProt P51812); details: kinase RSK2; 10 μM free compound; HeLa Placenta lysate mix
T12 construct: capturing and identification of kinases from mixed HeLa placenta lysates; endogenous in cells; host or cells: mixed lysate of HeLa cells and placenta tissue
Experimental: as §1

[13] = molecular target: T13, kinases from mixed HeLa placenta lysates (Homo sapiens, UniProt Q9NSY1); details: kinase BIKE; 10 μM free compound; HeLa Placenta lysate mix
T13 construct: capturing and identification of kinases from mixed HeLa placenta lysates; endogenous in cells; host or cells: mixed lysate of HeLa cells and placenta tissue
Experimental: as §1

[14] = molecular target: T14, kinases from mixed HeLa placenta lysates (Homo sapiens, UniProt Q13163); details: kinase MAP2K5; 10 μM free compound; HeLa Placenta lysate mix
T14 construct: capturing and identification of kinases from mixed HeLa placenta lysates; endogenous in cells; host or cells: mixed lysate of HeLa cells and placenta tissue
Experimental: as §1

[15] = molecular target: T15, kinases from mixed HeLa placenta lysates (Homo sapiens, UniProt Q12866); details: kinase MER; 10 μM free compound; HeLa Placenta lysate mix
T15 construct: capturing and identification of kinases from mixed HeLa placenta lysates; endogenous in cells; host or cells: mixed lysate of HeLa cells and placenta tissue
Experimental: as §1

[16] = molecular target: T16, kinases from mixed HeLa placenta lysates (Homo sapiens, UniProt P54646); details: kinase AMPKa2; 10 μM free compound; HeLa Placenta lysate mix
T16 construct: capturing and identification of kinases from mixed HeLa placenta lysates; endogenous in cells; host or cells: mixed lysate of HeLa cells and placenta tissue
Experimental: as §1

[17] = molecular target: T17, kinases from mixed HeLa placenta lysates (Homo sapiens, UniProt Q99683); details: kinase MAP3K5; 10 μM free compound; HeLa Placenta lysate mix
T17 construct: capturing and identification of kinases from mixed HeLa placenta lysates; endogenous in cells; host or cells: mixed lysate of HeLa cells and placenta tissue
Experimental: as §1

[18] = molecular target: T18, kinases from mixed HeLa placenta lysates (Homo sapiens, UniProt O94804); details: kinase LOK; 10 μM free compound; HeLa Placenta lysate mix
T18 construct: capturing and identification of kinases from mixed HeLa placenta lysates; endogenous in cells; host or cells: mixed lysate of HeLa cells and placenta tissue
Experimental: as §1

[19] = molecular target: T19, kinases from mixed HeLa placenta lysates (Homo sapiens, UniProt P42680); details: kinase TEC; 10 μM free compound; HeLa Placenta lysate mix
T19 construct: capturing and identification of kinases from mixed HeLa placenta lysates; endogenous in cells; host or cells: mixed lysate of HeLa cells and placenta tissue
Experimental: as §1

[20] = molecular target: T20, kinases from mixed HeLa placenta lysates (Homo sapiens, UniProt P06493); details: kinase CDC2; 10 μM free compound; HeLa Placenta lysate mix
T20 construct: capturing and identification of kinases from mixed HeLa placenta lysates; endogenous in cells; host or cells: mixed lysate of HeLa cells and placenta tissue
Experimental: as §1

[21] = molecular target: T21, kinases from mixed HeLa placenta lysates (Homo sapiens, UniProt P51956); details: kinase NEK3; 10 μM free compound; HeLa Placenta lysate mix
T21 construct: capturing and identification of kinases from mixed HeLa placenta lysates; endogenous in cells; host or cells: mixed lysate of HeLa cells and placenta tissue
Experimental: as §1

[22] = molecular target: T22, kinases from mixed HeLa placenta lysates (Homo sapiens, UniProt Q9Y6R4); details: kinase MAP3K4; 10 μM free compound; HeLa Placenta lysate mix
T22 construct: capturing and identification of kinases from mixed HeLa placenta lysates; endogenous in cells; host or cells: mixed lysate of HeLa cells and placenta tissue
Experimental: as §1

[23] = molecular target: T23, kinases from mixed HeLa placenta lysates (Homo sapiens, UniProt Q04771); details: kinase ALK2; 10 μM free compound; HeLa Placenta lysate mix
T23 construct: capturing and identification of kinases from mixed HeLa placenta lysates; endogenous in cells; host or cells: mixed lysate of HeLa cells and placenta tissue
Experimental: as §1

[24] = molecular target: T24, kinases from mixed HeLa placenta lysates (Homo sapiens, UniProt O43318); details: kinase MAP3K7; 10 μM free compound; HeLa Placenta lysate mix
T24 construct: capturing and identification of kinases from mixed HeLa placenta lysates; endogenous in cells; host or cells: mixed lysate of HeLa cells and placenta tissue
Experimental: as §1

T12 sequence (P51812 whole entry): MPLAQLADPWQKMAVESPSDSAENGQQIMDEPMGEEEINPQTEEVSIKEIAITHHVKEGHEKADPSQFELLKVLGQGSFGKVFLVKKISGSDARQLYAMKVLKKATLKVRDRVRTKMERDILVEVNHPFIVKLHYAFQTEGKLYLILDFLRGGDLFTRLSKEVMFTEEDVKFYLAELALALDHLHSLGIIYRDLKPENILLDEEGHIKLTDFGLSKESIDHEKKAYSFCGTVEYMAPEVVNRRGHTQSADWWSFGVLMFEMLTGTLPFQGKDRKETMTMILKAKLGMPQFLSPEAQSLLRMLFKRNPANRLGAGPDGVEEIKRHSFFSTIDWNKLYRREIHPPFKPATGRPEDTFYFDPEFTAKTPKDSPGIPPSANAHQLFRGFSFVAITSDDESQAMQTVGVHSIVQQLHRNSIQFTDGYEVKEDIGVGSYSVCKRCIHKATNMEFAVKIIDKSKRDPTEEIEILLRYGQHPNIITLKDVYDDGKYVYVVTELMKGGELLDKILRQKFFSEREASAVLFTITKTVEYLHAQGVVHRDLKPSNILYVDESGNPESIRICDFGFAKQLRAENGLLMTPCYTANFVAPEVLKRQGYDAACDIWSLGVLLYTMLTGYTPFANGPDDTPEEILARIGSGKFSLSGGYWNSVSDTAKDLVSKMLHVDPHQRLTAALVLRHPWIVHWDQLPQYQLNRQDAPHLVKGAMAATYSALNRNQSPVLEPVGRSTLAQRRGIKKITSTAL
T18 sequence (O94804 whole entry): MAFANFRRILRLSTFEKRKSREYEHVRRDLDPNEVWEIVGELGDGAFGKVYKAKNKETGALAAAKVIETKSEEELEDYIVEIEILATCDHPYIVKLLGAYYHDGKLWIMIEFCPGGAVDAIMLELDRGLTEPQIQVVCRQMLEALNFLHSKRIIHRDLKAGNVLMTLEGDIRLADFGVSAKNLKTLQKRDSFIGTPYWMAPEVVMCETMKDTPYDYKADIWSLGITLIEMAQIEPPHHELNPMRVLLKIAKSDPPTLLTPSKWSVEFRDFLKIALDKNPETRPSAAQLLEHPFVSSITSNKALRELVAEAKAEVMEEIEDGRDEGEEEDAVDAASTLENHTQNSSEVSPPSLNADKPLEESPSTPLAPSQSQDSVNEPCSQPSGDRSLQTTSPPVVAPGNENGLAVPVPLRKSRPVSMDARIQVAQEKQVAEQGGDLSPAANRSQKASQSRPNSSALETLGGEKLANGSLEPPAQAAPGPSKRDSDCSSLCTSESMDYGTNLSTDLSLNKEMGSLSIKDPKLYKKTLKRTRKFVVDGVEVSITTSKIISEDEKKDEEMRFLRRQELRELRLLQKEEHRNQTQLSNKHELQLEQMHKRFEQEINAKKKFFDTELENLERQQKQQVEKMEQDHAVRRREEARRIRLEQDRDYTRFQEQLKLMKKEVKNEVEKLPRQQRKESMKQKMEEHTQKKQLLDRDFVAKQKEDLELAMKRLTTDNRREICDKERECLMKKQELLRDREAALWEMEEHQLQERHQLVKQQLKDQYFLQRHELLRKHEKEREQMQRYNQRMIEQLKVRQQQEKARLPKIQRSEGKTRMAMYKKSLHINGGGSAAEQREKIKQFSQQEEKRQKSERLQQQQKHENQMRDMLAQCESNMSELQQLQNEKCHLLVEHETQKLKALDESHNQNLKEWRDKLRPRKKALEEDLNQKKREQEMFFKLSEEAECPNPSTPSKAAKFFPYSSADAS
T14 sequence (Q13163 whole entry): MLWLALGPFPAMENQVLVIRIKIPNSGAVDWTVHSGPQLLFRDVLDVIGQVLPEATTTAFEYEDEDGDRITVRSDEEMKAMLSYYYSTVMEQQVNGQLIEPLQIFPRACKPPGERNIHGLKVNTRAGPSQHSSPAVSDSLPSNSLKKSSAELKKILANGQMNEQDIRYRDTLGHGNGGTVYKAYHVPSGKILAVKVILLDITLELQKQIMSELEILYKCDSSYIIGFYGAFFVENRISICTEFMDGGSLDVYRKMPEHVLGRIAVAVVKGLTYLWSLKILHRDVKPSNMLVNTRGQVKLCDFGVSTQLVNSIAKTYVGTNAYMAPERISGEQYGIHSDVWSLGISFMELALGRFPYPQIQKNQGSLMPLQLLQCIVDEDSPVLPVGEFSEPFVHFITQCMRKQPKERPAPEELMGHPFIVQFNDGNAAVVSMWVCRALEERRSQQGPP
T4 sequence (P45984 whole entry): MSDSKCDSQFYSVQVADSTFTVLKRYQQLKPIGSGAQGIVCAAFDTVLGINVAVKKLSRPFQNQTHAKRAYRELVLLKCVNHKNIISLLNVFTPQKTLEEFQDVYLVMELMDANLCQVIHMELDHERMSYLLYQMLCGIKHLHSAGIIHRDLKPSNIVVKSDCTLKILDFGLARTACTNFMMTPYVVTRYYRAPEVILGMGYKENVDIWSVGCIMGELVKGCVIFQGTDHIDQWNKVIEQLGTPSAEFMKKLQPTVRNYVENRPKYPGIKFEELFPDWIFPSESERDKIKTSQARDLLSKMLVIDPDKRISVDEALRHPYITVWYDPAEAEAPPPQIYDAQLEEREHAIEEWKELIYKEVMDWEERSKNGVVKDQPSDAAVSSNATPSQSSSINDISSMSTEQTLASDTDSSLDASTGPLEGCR
T13 sequence (Q9NSY1 whole entry): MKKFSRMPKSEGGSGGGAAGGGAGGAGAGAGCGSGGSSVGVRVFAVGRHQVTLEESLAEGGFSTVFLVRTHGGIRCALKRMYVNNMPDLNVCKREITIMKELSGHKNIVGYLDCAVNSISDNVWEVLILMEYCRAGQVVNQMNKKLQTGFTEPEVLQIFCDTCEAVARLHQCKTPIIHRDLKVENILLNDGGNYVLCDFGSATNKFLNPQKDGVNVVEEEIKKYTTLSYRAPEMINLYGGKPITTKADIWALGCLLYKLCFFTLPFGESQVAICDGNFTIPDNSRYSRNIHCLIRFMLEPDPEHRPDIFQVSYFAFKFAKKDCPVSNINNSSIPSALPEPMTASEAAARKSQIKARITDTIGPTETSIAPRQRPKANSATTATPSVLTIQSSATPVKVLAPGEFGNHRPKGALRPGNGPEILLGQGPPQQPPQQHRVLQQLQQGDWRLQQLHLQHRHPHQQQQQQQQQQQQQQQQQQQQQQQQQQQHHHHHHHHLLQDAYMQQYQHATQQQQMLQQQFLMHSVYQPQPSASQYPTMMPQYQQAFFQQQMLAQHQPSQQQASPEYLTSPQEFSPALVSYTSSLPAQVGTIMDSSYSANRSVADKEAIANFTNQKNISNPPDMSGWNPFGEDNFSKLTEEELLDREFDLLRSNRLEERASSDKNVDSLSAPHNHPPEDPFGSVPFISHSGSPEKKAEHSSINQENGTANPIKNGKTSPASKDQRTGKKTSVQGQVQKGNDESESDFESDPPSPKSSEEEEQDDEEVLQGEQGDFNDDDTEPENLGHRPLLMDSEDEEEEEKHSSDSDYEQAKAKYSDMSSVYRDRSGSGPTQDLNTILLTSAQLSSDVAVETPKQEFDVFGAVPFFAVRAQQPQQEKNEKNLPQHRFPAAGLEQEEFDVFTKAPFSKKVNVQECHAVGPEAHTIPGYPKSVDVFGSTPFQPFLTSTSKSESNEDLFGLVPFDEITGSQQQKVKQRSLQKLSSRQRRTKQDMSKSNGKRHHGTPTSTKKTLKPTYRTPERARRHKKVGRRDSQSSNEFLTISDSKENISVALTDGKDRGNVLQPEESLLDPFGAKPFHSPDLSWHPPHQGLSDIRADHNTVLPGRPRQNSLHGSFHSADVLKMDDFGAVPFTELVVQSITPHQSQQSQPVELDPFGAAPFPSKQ
T15 sequence (Q12866 21-999): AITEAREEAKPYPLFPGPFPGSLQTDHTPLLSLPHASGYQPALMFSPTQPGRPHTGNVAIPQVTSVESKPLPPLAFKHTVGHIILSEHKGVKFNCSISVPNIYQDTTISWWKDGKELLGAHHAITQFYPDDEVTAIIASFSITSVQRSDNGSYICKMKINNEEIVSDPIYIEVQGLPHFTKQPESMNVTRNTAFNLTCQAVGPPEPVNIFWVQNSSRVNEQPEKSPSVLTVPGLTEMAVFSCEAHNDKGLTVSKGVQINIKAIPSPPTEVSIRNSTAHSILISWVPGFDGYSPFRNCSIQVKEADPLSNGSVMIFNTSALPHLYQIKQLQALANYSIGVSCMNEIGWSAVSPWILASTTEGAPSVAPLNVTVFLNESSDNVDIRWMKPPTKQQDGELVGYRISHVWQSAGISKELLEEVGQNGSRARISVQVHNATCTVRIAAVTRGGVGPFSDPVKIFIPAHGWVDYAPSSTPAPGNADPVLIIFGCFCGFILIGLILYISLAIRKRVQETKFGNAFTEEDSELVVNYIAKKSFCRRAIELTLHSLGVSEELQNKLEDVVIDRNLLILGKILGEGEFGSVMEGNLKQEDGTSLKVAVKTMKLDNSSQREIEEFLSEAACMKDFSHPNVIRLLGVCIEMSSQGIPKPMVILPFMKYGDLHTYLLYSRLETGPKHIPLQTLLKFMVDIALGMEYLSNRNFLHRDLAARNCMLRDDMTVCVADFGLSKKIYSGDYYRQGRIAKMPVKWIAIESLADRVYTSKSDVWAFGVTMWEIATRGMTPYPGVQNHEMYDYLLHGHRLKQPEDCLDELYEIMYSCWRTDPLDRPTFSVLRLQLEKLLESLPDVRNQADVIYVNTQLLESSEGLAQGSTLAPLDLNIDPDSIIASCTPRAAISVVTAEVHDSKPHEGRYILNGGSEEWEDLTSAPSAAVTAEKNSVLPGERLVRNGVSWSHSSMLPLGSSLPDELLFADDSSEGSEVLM
T20 sequence (P06493 whole entry): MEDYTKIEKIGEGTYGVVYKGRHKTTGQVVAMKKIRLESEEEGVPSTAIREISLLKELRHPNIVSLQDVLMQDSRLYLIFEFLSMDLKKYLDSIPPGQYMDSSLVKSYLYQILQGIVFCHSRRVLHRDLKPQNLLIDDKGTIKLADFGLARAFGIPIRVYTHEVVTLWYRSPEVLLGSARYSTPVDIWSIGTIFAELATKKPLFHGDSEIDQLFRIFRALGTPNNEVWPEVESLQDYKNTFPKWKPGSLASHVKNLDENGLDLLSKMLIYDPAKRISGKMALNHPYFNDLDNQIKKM

Structure (SMILES): CS(=O)(=O)Nc1ccccc1Nc1nc(Nc2cccc(OCCN)c2)ncc1F [CZC25342, N-(2-(2-(3-(2-aminoethoxy)phenylamino)-5-fluoropyrimidin-4-ylamino)phenyl)methanesulfonamide]
- Competition % AurB [1]: 93.1%
- Competition % TNK1 [2]: 94.1%
- Competition % MAP3K6 [3]: 91.6%
- Competition % JNK2 [4]: 83.8%
- Competition % MARK3 [5]: 96.2%
- Competition % PKCa [6]: 96.4%
- Competition % RIPK2 [7]: 94.4%
- Competition % AurA [8]: 93.6%
- Competition % NEK9 [9]: 83%
- Competition % MAP3K2 [10]: 94.7%
- Competition % IRAK4 [11]: 95.6%
- Competition % RSK2 [12]: 95.6%
- Competition % BIKE [13]: 94.8%
- Competition % MAP2K5 [14]: 87.4%
- Competition % MER [15]: 96.5%
- Competition % AMPKa2 [16]: 97.1%
- Competition % MAP3K5 [17]: 94.1%
- Competition % LOK [18]: 97.7%
- Competition % TEC [19]: 89.3%
- Competition % CDC2 [20]: 94.3%
- Competition % NEK3 [21]: 94.8%
- Competition % MAP3K4 [22]: 92.2%
- Competition % ALK2 [23]: 96.4%
- Competition % MAP3K7 [24]: 85.8%
